Experimental findings from patent US20170246230A1, “PHARMACEUTICAL COMPOSITION FOR TREATING INFERTILITY, AND PREPARATION METHOD AND USE THEREOF” (priority 2014, published 2017) are described below.

Holding throughout (format): in vivo, Kunming mice
Assay [1] concerns mice with sterility induced by androgens. The assay is described as follows: Quantities of follicles, oocytes and interstitial gland composition in ovary slices of androgen-sterile mice. Conditions: 18 mg/kg intragastric, 4 weeks, TP-modelled mice. The protocol: (§1) 120 Kunming female mice (20 days old) were randomly divided into 6 groups according to their weights and there were 20 in each group. 20 mice in the normal control group were subcutaneously injected with saline and the remaining 100 mice were used in modeling and subcutaneously injected with TP (testosterone propionate). The modeling method is described like this, 100 mice were subcutaneously injected with 0.06 mL TP (testosterone propionate), 4 d/time, continuous injection for 2 weeks and drug withdrawal for 1 weeks. Those mice after modelling were randomly divided into […], i.e. model control group, Clomifenecitrate capsules group and HDG (high-dose group), MDG (medium-dose group) and LDG (low-dose group) of the drug combination in the present invention.
(§2) After 4 weeks of administration, the drug was suspended for 48 h, 10 mice were executed in each group and the remaining 10 mice were left to carry out the conception rate test.
Mice were executed and their ovaries and uterus were removed. Ovaries were fixed with […] and tissue slices were observed under the ordinary optical microscope after the process of HE tinction and oil red 0 tinction. Uterus were fixed with 100 g/L formaldehyde and tissue slices were imbedded with paraffin and undergone the process of 4 μm slicing and ER marking. Light microscopy was used for observation after the hematoxylin counter staining.

The test system is the same in assay [2]. The assay is described as follows: Estradiol (E2) content in sera of mice with sterility induced by androgens (ELISA). The note with it: 18 mg/kg intragastric, 4 weeks, TP-modelled female mice, serum. Background: In an ELISA, binding on a coated surface is turned into a signal by an enzyme label.
Experimental: Blank control group: Intragastrically administrated with distilled water on daily basis at a dose of 2 ml/d;
Model control group: Intragastrically administrated with distilled water on daily basis and at a dose of 2 ml/d;
Irrigation was stopped for 48 h, orbital blood of mice was collected, serum was separated and enzyme linked immunosorbent assay was used to detect E2.
Assay [3] shares this test system. The assay is described as follows: Conception conditions of mated female mice after the medication. The note with it: 18 mg/kg, 4 weeks, 10 d after mating. The protocol:
as §1, §2
To put 10 mice from each cage into the cage where 4 normally-matured male mice. 10 d after the mating, uterus of female mice were dissected to observe the conception conditions.

Regarding `CCN(CC)CCOc1ccc(C(=C(Cl)c2ccccc2)c2ccccc2)cc1` [Clomifenecitrate capsules, Clomifenecitrate], in assay [1], the Interstitial gland composition was determined as 24.96 ± 5.00, the Quantity of follicles came out at 37.6 ± 6.4 piece and the Quantity of oocytes worked out at 8.7 ± 2.2 piece. Also, the E2 in assay [2] was 12.76 ± 4.98 µg/L. Moreover, the Number of conception in assay [3] (10 female mice) is reported as 6 mice. In addition, the Rate of conception in assay [3] turned out to be 60.0%.
